Measured values: PMC3534098 (PLoS ONE, 2012)
≈ marks a conversion by molar mass, not a printed value. Like-named read-outs stand apart in the source and are kept apart here.

Experiments:
in vitro [1] = conditions: mouse, microsomes, pH 7.4
M. tuberculosis CDC1551 = assay: microbe, parasite or virus in culture; assay type: cell-based; conditions: Mycobacterium tuberculosis, CDC1551, read-out: MIC CDC1551
[2] = system: M. bovis BCG strain Pasteur; assay: microbe, parasite or virus in culture; assay type: cell-based; conditions: Mycobacterium tuberculosis variant bovis BCG, read-out: MIC M. bovis BCG
[3] = system: L1210, HepG2, NEURO 2A, MDCK and H9C2(2-1)
M. tuberculosis H37Rv [4] = assay: microbe, parasite or virus in culture; assay type: cell-based; conditions: Mycobacterium tuberculosis, read-out: MIC H37Rv
[5] = not given; remark: listed apart in the source
M. tuberculosis Beijing = assay: microbe, parasite or virus in culture; assay type: cell-based; conditions: Mycobacterium tuberculosis, read-out: MIC Beijing
[6] = system: Enterococcus faecium, Enterococcus faecalis, Haemophilus influenzae, Moraxella catarrhalis, Streptococcus pneumoniae, Escherichia coli and Streptococcus …; assay type: cell-based, Gram-positive and Gram-negative organisms
M. tuberculosis inh233 = assay: microbe, parasite or virus in culture; assay type: cell-based; conditions: Mycobacterium tuberculosis, INH233, read-out: MIC inh233
in vitro [7] = conditions: human, microsomes, pH 7.4
M. tuberculosis H37Rv [8] = assay: Dose response efficacy in acute murine model of TB infection; assay type: in vivo, B6 mice
Protocol: (§1) For pharmacokinetic studies C57BL/6 female mice of 18–20 g weight were used. Experimental compounds were administered through oral gavage at 50 mg/kg dose at a concentration of 20 ml/kg. All mice received treatment in the fed state. Peripheral total blood was the compartment chosen for the establishment of compound concentrations. Drugs were administered as 1% methyl cellulose suspensions and the blood sampling scheme was: 15, 30 and 45 minutes, 1, 1.5, 2, 3, 4, 8 and 24 hours. At each time-point, blood from 4 different animals was obtained. LC-MS was used as the analytical method of choice for the establishment of compound concentration in blood with a sensitivity of LLQ = 1–5 ng/ml in […]. The non-compartmental data analysis was performed with WinNonlin 5.0 and supplementary analysis was performed with GraphPad 4 software. Dose-response studies in an acute murine infection TB model were carried out as previously described.
Figure 3 Therapeutic efficacy of anti-tubercular IP 3 against M. tuberculosis H37Rv in vivo. B6 mice were infected by intra-tracheal instillation with 10^5 cfu M. tuberculosis H37Rv per mouse. The mice were treated with the anti-tubercular orally once a day from day 1 to day 8. Efficacy results are expressed as log cfu reduction in the lungs of infected mice and are the mean±SD of five mice. The shaded line indicates the levels of administered mycobacterial inoculum.

[9] = Whole blood pharmacokinetics after oral administration in mice; assay type: in vivo, C57BL/6 female mice; conditions: female, mouse, oral 50 mg/kg suspension in 1% aqueous methylcellulose
Protocol: as §1
Figure 2 Whole blood pharmacokinetic profile and main parameters of IP 3 after oral administration of a 50 mg/kg suspension in 1% aqueous methylcellulose.

cytochrome bc 1 complex = target: cytochrome bc 1 complex; set-up: method as in PMID 6327677; conditions: high affinity binding site Qo; cited from earlier work

SMILES | half-life at 0.5 mM (in vitro [1]) [min] | MIC (M. tuberculosis CDC1551) [µM] | Human CLint (human liver microsomes) [ml/min/gprotein] | MIC [2] [µM] | Tox50 Cell lines [3] | MIC (M. tuberculosis H37Rv [4]) [µM] | Mouse CLint ([5]; mouse liver microsomes) [ml/min/gprotein] | MIC (M. tuberculosis Beijing) [µM] | MIC Anti-bacterial panel [6] | MIC (M. tuberculosis inh233) [µM] | half-life (in vitro [1]) [min] | Human CLint (human, microsomes) [ml/min/gprotein] | Mouse CLint ([5]; mouse, microsomes) [ml/min/gprotein] | half-life (in vitro [7]) [min] | further results
Cc1ccc2nc(C)c(C(=O)NCc3cccs3)n2c1 [IP 1] | < 3 | 0.06 (≈ 0.0171 µg/mL) | 3.9 | 1 (≈ 0.285 µg/mL) | all>25 µM | 0.2 (≈ 0.0571 µg/mL) | >30 | 0.03 (≈ 0.00856 µg/mL) | all>64 µM | 0.03 (≈ 0.00856 µg/mL) |  |  |  |  | 
Cc1ccc2nc(C(F)(F)F)c(C(=O)NCc3cccc(Cl)c3)n2c1 [IP 2] | < 3 | 0.06 (≈ 0.0221 µg/mL) | >30 |  | all>50 µM | 0.2 (≈ 0.0736 µg/mL) | >30 | 0.06 (≈ 0.0221 µg/mL) | all>16 µM | 0.03 (≈ 0.011 µg/mL) |  |  |  |  | half-life at 0.5 mM (in vitro [7]): < 3 min
Cc1ccc2nc(C)c(C(=O)NCc3ccc(C(F)(F)F)cc3)n2c1 [IP 3, 2,6-Dimethyl-N-(4-(trifluoromethyl)benzyl)imidazo[1,2-a]pyridine-3-carboxamide] |  |  |  | 0.5 (≈ 0.174 µg/mL) | all>25 µM | 0.03 (≈ 0.0104 µg/mL) |  |  | all>16 µM |  | 11.6 | 4.9 | 7 | 15.8 | log cfu reduction with respect to non-treated controls (M. tuberculosis H37Rv [8]; 300 mg/kg orally once a day from day 1 to day 8, lungs of infected mice): 2 log cfu; log cfu reduction with respect to non-treated controls (M. tuberculosis H37Rv [8]; 500 mg/kg orally once a day from day 1 to day 8, lungs of infected mice): 2 log cfu; behavior in vivo (M. tuberculosis H37Rv [8]; acute murine model of TB infection): bacteriostatic; signs of toxicity (M. tuberculosis H37Rv [8]; any of the administered doses, mice): No signs of toxicity; bioavailability ([9]; C57BL/6, whole blood, read-out: F (percentage bioavailability)): 61%; AUC ([9]; C57BL/6, whole blood, read-out: AUC (Area Under the Curve) (0–8 hours)): 4360 ng·h/mL; Cmax ([9]; C57BL/6, whole blood, read-out: Cmax (maximum concentration observed in whole blood)): 3400 ng/mL
Cc1ccc2nc(C)c(C(=O)NCc3ccc(Cl)nc3)n2c1 [IP 4, N-((6-Chloropyridin-3-yl)methyl)-2,6-dimethylimidazo[1,2-a]pyridine-3-carboxamide] |  |  |  | 5 (≈ 1.57 µg/mL) | all>50 µM | 5 (≈ 1.57 µg/mL) |  |  | all>16 µM |  | 11.4 | 2.3 | 7.4 | > 30 | 
CO/C(=C/C(N)=O)[C@H](C)[C@H](/C=C/c1csc(-c2csc([C@@H](C)/C=C/C=C/C(C)C)n2)n1)OC [Myxothiazol, myxothiazol] |  |  |  |  |  |  |  |  |  |  |  |  |  |  | Kd (cytochrome bc 1 complex): < 1 nM
